This note sets out measurements from patent publication US9393308B2, “Micelle structure of nano preparation for diagnosis or treatment of cancer disease and preparation method thereof” (KOREA ADVANCED INSTITUTE OF SCIENCE AND TECHNOLOGY, priority 2013, dated 2016).

Each structure is given as a SMILES string.

In data set [1] the test system is U251MG, which is a human malignant glioma cell. The experiment in a line: Cytotoxicity when light is not irradiated (WST-1, dark room condition). The class given is cell-based. Particulars: 10 μM or less, 2 h treatment, 24 h additional culture. As to the method:
In order to evaluate cytotoxicity, U251MG, which is a human malignant glioma cell, was obtained from American Type Culture Collection (ATCC, Manassas, Va., USA). The obtained cell was cultured in a Dulbecco's Modified Eagle's Medium including the nutrient mixture F-12, 10% fetal bovine serum, an antibiotic (penicillin (100 I.U./mL), and streptomycin (100 μg/mL)), and the 0.1 mM MEM non-essential amino acid solution under conditions of 37° C. and 5% carbon dioxide. 5×10^4 cell/well of the cultured cells were dispensed into a 24-well plate, and DMEM/F12 medium (1 mL) was injected four times for each sample. The medium was removed 24 hours after culture, and media respectively including nanopreparations prepared in Example 1 and Comparative Examples 2 and 3 in concentrations of 1.0, 2.5, 5.0, and 10 μM were injected. In this case, the volume of the nanopreparations included in the injected medium was set not to exceed 1.0% of the total volume of the medium. […] Then, absorbance of the culture medium was measured at the wavelength of 450 nm by using an absorbance microplate reader. In this case, the aforementioned whole procedure was performed at a dark room condition, and cell viability was derived from the measured normalized absorbance.
(Tetrazolium dyes change colour on reduction, which living cells bring about.)

The test system is the same in data set [2]. Kind of data set: Light induced cytotoxicity by light irradiation (590 to 605 nm, 0.1 J/cm^2). Format: cell-based. Particulars: light 590 to 605 nm, 5 mW/cm^2, 0.1 J/cm^2, 12 hours culture. On the procedure: 1×10^4 cell/well of U251MG, which is a human malignant glioma cell, were dispensed into a 96-well plate, and a DMEM/F12 medium (100 μL) was injected four times for each sample. 24 hours after culture, the medium was replaced with media respectively including the nanopreparations prepared in Example 1 and Comparative Examples 2 and 3 (sample treatment group) and a medium without the nanopreparation (non-treatment group). The samples were cultured at the dark room condition for 2 hours, washed with phosphate buffered saline (PBS). Then, media was replaced again with media without the nanopreparation. Subsequently, 5 mW/cm^2 of lighting power of light (590 to 605 nm) was irradiated through a light irradiation system (LIS) so that total energy applied to each cell is adjusted to 0.1 J/cm^2 to perform photodynamic diagnosis (photodynamic therapy). Each cell was cultured for 12 hours at the light irradiation condition. The cultured cell was subjected to the same method as Experimental Example 3 to measure light-cytotoxicity. Light induced cytotoxicity and light induced cytotoxicity efficiency were derived from the measured values by using Equations 1 and 2.

For `Cc1cc(O)c2c(=O)c3c(O)cc(O)c4c5c(O)cc(O)c6c(=O)c7c(O)cc(C)c8c1c2c(c34)c(c78)c65` [Comparative Example 2, Hypericin], the “toxicity to cells when light is not irradiated” value in data set [1] was “do not have toxicity to cells”. In addition, the “light toxicity (light induced cytotoxicity efficiency)” value in data set [2] is 1.00±0.04 % mg/A.U. mL.
